Laboratory results published in patent US6525001B1, “Substituted pyrimidine and pyridine herbicides” (Mid-American Commercialization Corporation, priority 1997, dated 2003).

Key:
Format in all cases: in vivo
Parameters in all cases: key: 0 is no effect; 10 is complete control
[1] = system: bedstraw (Galium aparine); assay: Test B pre-/postemergence
Procedure, shortened: (§1)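 Compounds in a surfactant-containing, non-phytotoxic solvent blend are applied to freshly planted seed (preemergence) and, concurrently, to seedlings of 2 to 18 cm at 1–4 leaves (postemergence). Plants stay in the greenhouse twelve to sixteen days and are then scored visually from 0 (no effect) to 10 (complete control).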

[2] = system: blackgrass (Alopecurus myosuroides); assay: Test B pre-/postemergence
Procedure, shortened: as §1

[3] = system: broadleaf signalgrass (Brachiaria decumbens); assay: Test B pre-/postemergence
Procedure, shortened: as §1

[4] = system: cocklebur (Xanthium strumarium); assay: Test B pre-/postemergence; settings: Preemergence
Procedure, shortened: as §1

corn (Zea mays) = assay: Test B pre-/postemergence
Procedure, shortened: as §1

[5] = system: crabgrass (Digitaria sanguinalis); assay: Test B pre-/postemergence
Procedure, shortened: as §1

[6] = system: giant foxtail (Setaria faberii); assay: Test B pre-/postemergence
Procedure, shortened: as §1

[7] = system: momingglory (Ipomoea hederacea); assay: Test B pre-/postemergence
Procedure, shortened: as §1

[8] = system: pigweed (Amaranthus retroflexus); assay: Test B pre-/postemergence
Procedure, shortened: as §1

[9] = system: purple nutsedge (Cyperus rotundus); assay: Test B pre-/postemergence
Procedure, shortened: as §1

rape (Brassica napus) = assay: Test B pre-/postemergence
Procedure, shortened: as §1

soybean (Glycine max) = assay: Test B pre-/postemergence
Procedure, shortened: as §1

[10] = system: sugar beet (Beta vulgaris); assay: Test B pre-/postemergence
Procedure, shortened: as §1

[11] = system: velvetleaf (Abutilon theophrasti); assay: Test B pre-/postemergence
Procedure, shortened: as §1

[12] = system: wheat (Triticum aestivum); assay: Test B pre-/postemergence
Procedure, shortened: as §1

wild oat (Avena fatua) = assay: Test B pre-/postemergence
Procedure, shortened: as §1

[13] = system: bamyardgrass (Echinochloa crus-galli); assay: Test B flood test
Procedure, shortened: (§2)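 Read-out is a visual response score from 0 (no effect) to 10 (complete control), assigned by comparison with untreated controls. Treatment was applied at the 2-leaf stage, and plants stayed in the greenhouse for twelve to sixteen days before scoring.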

[14] = system: duck salad (Heteranthera limosa); assay: Test B flood test
Procedure, shortened: as §2

rice (Oryza sativa) = assay: Test B flood test
Procedure, shortened: as §2

[15] = system: smallflower flatsedge (Cyperus difformis); assay: Test B flood test
Procedure, shortened: as §2

[16] = Rate 125 g/ha, Postemergence, flood test
[17] = Rate 250 g/ha, Postemergence (flood test species)
[18] = Rate 500 g/ha, Postemergence (flood test species)

Cc1cnc(-c2ccccc2)nc1Cn1ccc(C(F)(F)F)n1 [Compound 7]
Plant response rating, Bedstraw ([1]; Rate 125 g/ha, Postemergence): 3 | Bedstraw plant response rating ([1]; Rate 125 g/ha, Preemergence): 0 | Plant response rating, Bedstraw ([1]; Rate 250 g/ha, Postemergence): 3 | Plant response rating, Bedstraw ([1]; Rate 250 g/ha, Preemergence): 0 | Plant response rating, Bedstraw ([1]; Rate 500 g/ha, Postemergence): 3 | Plant response rating, Bedstraw ([1]; Rate 500 g/ha, Preemergence): 0 | Plant response rating, Blackgrass ([2]; Rate 125 g/ha, Postemergence): 0 | Blackgrass plant response rating ([2]; Rate 125 g/ha, Preemergence): 0 | Plant response rating, Blackgrass ([2]; Rate 250 g/ha, Preemergence): 0 | Plant response rating, Blackgrass ([2]; Rate 500 g/ha, Postemergence): 1 | Plant response rating, Blackgrass ([2]; Rate 500 g/ha, Preemergence): 0 | Plant response rating, B. signalgrass ([3]; Rate 125 g/ha, Postemergence): 1 | B. signalgrass plant response rating ([3]; Rate 125 g/ha, Preemergence): 0 | Plant response rating, B. signalgrass ([3]; Rate 250 g/ha, Postemergence): 1 | Plant response rating, B. signalgrass ([3]; Rate 250 g/ha, Preemergence): 0 | Plant response rating, B. signalgrass ([3]; Rate 500 g/ha, Postemergence): 1 | Plant response rating, B. signalgrass ([3]; Rate 500 g/ha, Preemergence): 0 | Cocklebur plant response rating ([4]; Rate 125 g/ha): 0 | Plant response rating, Cocklebur ([4]; Rate 250 g/ha): 0 | Plant response rating, Cocklebur ([4]; Rate 500 g/ha): 0 | Plant response rating, Corn (corn (Zea mays); Rate 125 g/ha, Postemergence): 1 | Corn plant response rating (corn (Zea mays); Rate 125 g/ha, Preemergence): 0 | Plant response rating, Corn (corn (Zea mays); Rate 250 g/ha, Postemergence): 2 | Plant response rating, Corn (corn (Zea mays); Rate 250 g/ha, Preemergence): 0 | Plant response rating, Corn (corn (Zea mays); Rate 500 g/ha, Postemergence): 2 | Plant response rating, Corn (corn (Zea mays); Rate 500 g/ha, Preemergence): 0 | Plant response rating, Crabgrass ([5]; Rate 125 g/ha, Postemergence): 0 | Crabgrass plant response rating ([5]; Rate 125 g/ha, Preemergence): 0 | Plant response rating, Crabgrass ([5]; Rate 250 g/ha, Postemergence): 2 | Plant response rating, Crabgrass ([5]; Rate 250 g/ha, Preemergence): 1 | Plant response rating, Crabgrass ([5]; Rate 500 g/ha, Postemergence): 2 | Plant response rating, Crabgrass ([5]; Rate 500 g/ha, Preemergence): 2 | Plant response rating, Giant foxtail ([6]; Rate 125 g/ha, Postemergence): 1 | Giant foxtail plant response rating ([6]; Rate 125 g/ha, Preemergence): 0 | Plant response rating, Giant foxtail ([6]; Rate 250 g/ha, Postemergence): 1 | Plant response rating, Giant foxtail ([6]; Rate 250 g/ha, Preemergence): 1 | Plant response rating, Giant foxtail ([6]; Rate 500 g/ha, Postemergence): 1 | Plant response rating, Giant foxtail ([6]; Rate 500 g/ha, Preemergence): 5 | Plant response rating, Morningglory ([7]; Rate 125 g/ha, Postemergence): 1 | Morningglory plant response rating ([7]; Rate 125 g/ha, Preemergence): 0 | Plant response rating, Morningglory ([7]; Rate 250 g/ha, Postemergence): 2 | Plant response rating, Morningglory ([7]; Rate 250 g/ha, Preemergence): 0 | Plant response rating, Morningglory ([7]; Rate 500 g/ha, Postemergence): 5 | Plant response rating, Morningglory ([7]; Rate 500 g/ha, Preemergence): 0 | Plant response rating, Redroot pigweed ([8]; Rate 125 g/ha, Postemergence): 3 | Redroot pigweed plant response rating ([8]; Rate 125 g/ha, Preemergence): 0 | Plant response rating, Redroot pigweed ([8]; Rate 250 g/ha, Postemergence): 7 | Plant response rating, Redroot pigweed ([8]; Rate 250 g/ha, Preemergence): 2 | Plant response rating, Redroot pigweed ([8]; Rate 500 g/ha, Postemergence): 7 | Plant response rating, Redroot pigweed ([8]; Rate 500 g/ha, Preemergence): 2 | Plant response rating, Nutsedge ([9]; Rate 125 g/ha, Postemergence): 0 | Nutsedge plant response rating ([9]; Rate 125 g/ha, Preemergence): 0 | Plant response rating, Nutsedge ([9]; Rate 250 g/ha, Postemergence): 0 | Plant response rating, Nutsedge ([9]; Rate 250 g/ha, Preemergence): 0 | Plant response rating, Nutsedge ([9]; Rate 500 g/ha, Postemergence): 0 | Plant response rating, Nutsedge ([9]; Rate 500 g/ha, Preemergence): 0 | Plant response rating, Rape (rape (Brassica napus); Rate 125 g/ha, Postemergence): 5 | Rape plant response rating (rape (Brassica napus); Rate 125 g/ha, Preemergence): 0 | Plant response rating, Rape (rape (Brassica napus); Rate 250 g/ha, Postemergence): 6 | Plant response rating, Rape (rape (Brassica napus); Rate 250 g/ha, Preemergence): 0 | Plant response rating, Rape (rape (Brassica napus); Rate 500 g/ha, Postemergence): 7 | Plant response rating, Rape (rape (Brassica napus); Rate 500 g/ha, Preemergence): 0 | Plant response rating, Soybean (soybean (Glycine max); Rate 125 g/ha, Postemergence): 3 | Soybean plant response rating (soybean (Glycine max); Rate 125 g/ha, Preemergence): 0 | Plant response rating, Soybean (soybean (Glycine max); Rate 250 g/ha, Postemergence): 3 | Plant response rating, Soybean (soybean (Glycine max); Rate 250 g/ha, Preemergence): 0 | Plant response rating, Soybean (soybean (Glycine max); Rate 500 g/ha, Postemergence): 5 | Plant response rating, Soybean (soybean (Glycine max); Rate 500 g/ha, Preemergence): 0 | Plant response rating, Sugarbeets ([10]; Rate 125 g/ha, Postemergence): 3 | Sugarbeets plant response rating ([10]; Rate 125 g/ha, Preemergence): 0 | Plant response rating, Sugarbeets ([10]; Rate 250 g/ha, Postemergence): 8 | Plant response rating, Sugarbeets ([10]; Rate 250 g/ha, Preemergence): 0 | Plant response rating, Sugarbeets ([10]; Rate 500 g/ha, Postemergence): 8 | Plant response rating, Sugarbeets ([10]; Rate 500 g/ha, Preemergence): 1 | Plant response rating, Velvetleaf ([11]; Rate 125 g/ha, Postemergence): 1 | Velvetleaf plant response rating ([11]; Rate 125 g/ha, Preemergence): 0 | Plant response rating, Velvetleaf ([11]; Rate 250 g/ha, Postemergence): 1 | Plant response rating, Velvetleaf ([11]; Rate 250 g/ha, Preemergence): 0 | Plant response rating, Velvetleaf ([11]; Rate 500 g/ha, Postemergence): 2 | Plant response rating, Velvetleaf ([11]; Rate 500 g/ha, Preemergence): 0 | Plant response rating, Wheat ([12]; Rate 125 g/ha, Postemergence): 0 | Wheat plant response rating ([12]; Rate 125 g/ha, Preemergence): 0 | Plant response rating, Wheat ([12]; Rate 250 g/ha, Postemergence): 0 | Plant response rating, Wheat ([12]; Rate 250 g/ha, Preemergence): 0 | Plant response rating, Wheat ([12]; Rate 500 g/ha, Postemergence): 0 | Plant response rating, Wheat ([12]; Rate 500 g/ha, Preemergence): 0 | Plant response rating, Wild oats (wild oat (Avena fatua); Rate 125 g/ha, Postemergence): 0 | Wild oats plant response rating (wild oat (Avena fatua); Rate 125 g/ha, Preemergence): 0 | Plant response rating, Wild oats (wild oat (Avena fatua); Rate 250 g/ha, Postemergence): 0 | Plant response rating, Wild oats (wild oat (Avena fatua); Rate 250 g/ha, Preemergence): 0 | Plant response rating, Wild oats (wild oat (Avena fatua); Rate 500 g/ha, Postemergence): 0 | Plant response rating, Wild oats (wild oat (Avena fatua); Rate 500 g/ha, Preemergence): 0 | Plant response rating, Barnyardgrass [13, 16]: 1 | Plant response rating, Barnyardgrass [13, 17]: 1 | Plant response rating, Barnyardgrass [13, 18]: 2 | Plant response rating, Ducksalad [14, 16]: 0 | Plant response rating, Ducksalad [14, 17]: 0 | Plant response rating, Ducksalad [14, 18]: 2 | Plant response rating, Rice (rice (Oryza sativa); [16]): 0 | Plant response rating, Rice (rice (Oryza sativa); [17]): 0 | Plant response rating, Rice (rice (Oryza sativa); [18]): 0 | Plant response rating, S. Flatsedge [15, 16]: 1 | Plant response rating, S. Flatsedge [15, 17]: 2 | Plant response rating, S. Flatsedge [15, 18]: 4
